{"source": "paper PMC9643853", "about": "“Synthesis and evaluation of 3-alkynyl-5-aryl-7-aza-indoles as broad-spectrum antiviral agents” (Frontiers in Chemistry, 2022)", "key": {"RSV-A": {"test_system": "RSV-A", "experiment": "RSV-A cytopathic effect (CPE) reduction assay in HEp-2 cells, MTS read-out", "assay_type": "cell-based, human respiratory syncytial virus, RSV-A strain Long", "conditions": "for EC50: human respiratory syncytial virus, HEp-2, 96 h, read-out: RSV-A EC50"}, "AAK1": {"target": "AAK1 (Homo sapiens, UniProt Q2M2I8)", "sequence (Q2M2I8 whole entry)": "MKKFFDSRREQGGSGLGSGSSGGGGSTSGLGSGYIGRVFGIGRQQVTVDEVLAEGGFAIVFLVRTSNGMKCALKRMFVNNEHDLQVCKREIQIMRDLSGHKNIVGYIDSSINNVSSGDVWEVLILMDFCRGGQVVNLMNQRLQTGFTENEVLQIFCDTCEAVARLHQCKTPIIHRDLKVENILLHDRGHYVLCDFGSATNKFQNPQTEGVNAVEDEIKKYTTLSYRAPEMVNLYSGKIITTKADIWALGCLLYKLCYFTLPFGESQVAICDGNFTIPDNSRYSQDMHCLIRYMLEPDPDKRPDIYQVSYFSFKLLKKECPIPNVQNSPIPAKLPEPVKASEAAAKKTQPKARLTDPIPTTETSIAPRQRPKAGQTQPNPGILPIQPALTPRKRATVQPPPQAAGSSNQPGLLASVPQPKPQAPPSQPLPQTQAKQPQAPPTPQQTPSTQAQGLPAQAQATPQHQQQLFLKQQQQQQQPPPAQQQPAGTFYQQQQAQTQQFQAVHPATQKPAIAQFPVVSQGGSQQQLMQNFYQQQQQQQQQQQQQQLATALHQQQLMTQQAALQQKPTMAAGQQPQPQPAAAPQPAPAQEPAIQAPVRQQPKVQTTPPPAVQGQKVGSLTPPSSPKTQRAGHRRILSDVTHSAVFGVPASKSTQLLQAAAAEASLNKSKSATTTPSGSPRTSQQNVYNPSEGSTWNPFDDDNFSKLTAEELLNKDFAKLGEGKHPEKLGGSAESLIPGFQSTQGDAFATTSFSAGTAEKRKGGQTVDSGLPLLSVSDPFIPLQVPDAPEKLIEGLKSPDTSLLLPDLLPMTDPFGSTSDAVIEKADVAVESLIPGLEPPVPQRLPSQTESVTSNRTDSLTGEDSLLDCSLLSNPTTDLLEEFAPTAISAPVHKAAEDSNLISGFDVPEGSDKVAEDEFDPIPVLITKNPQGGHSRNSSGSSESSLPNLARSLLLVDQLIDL", "experiment": "LanthaScreen Eu Kinase Binding Assay for AAK1"}, "in vitro [1]": {"experiment": "in vitro", "conditions": "human"}, "VEEV (TC-83)": {"test_system": "VEEV (TC-83)", "experiment": "microbe, parasite or virus in culture", "assay_type": "cell-based", "conditions": "Venezuelan equine encephalitis virus, U-87 MG, 18 h, read-out: VEEV EC50"}, "in vitro [2]": {"experiment": "in vitro", "conditions": "human", "remark": "listed apart in the source"}, "SARS-CoV-2": {"test_system": "SARS-CoV-2", "experiment": "microbe, parasite or virus in culture", "assay_type": "cell-based, SARS-CoV-2 BetaCov/Belgium/GHB-03021/2020", "conditions": "Severe acute respiratory syndrome coronavirus 2, 96 h, read-out: SARS-CoV-2 EC50"}, "in vitro [3]": {"experiment": "in vitro", "conditions": "African green monkey"}}}
{"smiles": "COc1cc(OC)cc(-c2cnc3c(c2)c(C#Cc2cccnc2)cn3C)c1", "note": "[Compound 7a]", "values": [{"measurement": "EC50", "setting": "RSV-A", "value": "1.65 ± 0.5", "unit": "µM"}, {"measurement": "AAK1 affinity (in words)", "setting": "AAK1", "value": "no AAK1 affinity"}, {"measurement": "IC50", "setting": "AAK1", "value": "> 10", "unit": "µM"}, {"measurement": "CC50", "setting": "in vitro [1]", "value": "> 10", "unit": "µM"}, {"measurement": "EC50", "setting": "VEEV (TC-83)", "value": "> 10", "unit": "µM"}, {"measurement": "CC50 at 4 days", "setting": "in vitro [2]", "value": "30 ± 28.3", "unit": "µM"}]}
{"smiles": "CCn1cc(C#Cc2cccnc2)c2cc(-c3cc(OC)cc(OC)c3)cnc21", "note": "[Compound 7b]", "values": [{"measurement": "EC50", "setting": "RSV-A", "value": "> 2", "unit": "µM"}, {"measurement": "CC50", "setting": "in vitro [1]", "value": "> 10", "unit": "µM"}, {"measurement": "EC50", "setting": "VEEV (TC-83)", "value": "3.92 ± 1.15", "unit": "µM"}, {"measurement": "CC50 at 4 days", "setting": "in vitro [2]", "value": 2, "unit": "µM"}]}
{"smiles": "COc1cc(OC)cc(-c2cnc3c(c2)c(C#Cc2cccnc2)cn3CC(C)C)c1", "note": "[Compound 7c]", "values": [{"measurement": "EC50", "setting": "RSV-A", "value": "> 10", "unit": "µM"}, {"measurement": "CC50", "setting": "in vitro [1]", "value": "> 10", "unit": "µM"}, {"measurement": "EC50", "setting": "VEEV (TC-83)", "value": "> 10", "unit": "µM"}, {"measurement": "CC50 at 4 days", "setting": "in vitro [2]", "value": "10.7 ± 0.98", "unit": "µM"}]}
{"smiles": "COc1cc(OC)cc(-c2cnc3c(c2)c(C#Cc2cccnc2)cn3Cc2ccccc2)c1", "note": "[Compound 7d]", "values": [{"measurement": "EC50", "setting": "RSV-A", "value": "4.88 ± 0.28", "unit": "µM"}, {"measurement": "CC50", "setting": "in vitro [1]", "value": "> 10", "unit": "µM"}, {"measurement": "EC50", "setting": "VEEV (TC-83)", "value": "> 10", "unit": "µM"}, {"measurement": "CC50 at 4 days", "setting": "in vitro [2]", "value": "> 50", "unit": "µM"}]}
{"smiles": "O=C(c1cccc(-c2cnc3[nH]cc(C#Cc4cccnc4)c3c2)c1)N1CCCC1", "note": "[Compound 8L]", "values": [{"measurement": "EC50", "setting": "RSV-A", "value": "1 ± 0.94", "unit": "µM"}, {"measurement": "CC50", "setting": "in vitro [1]", "value": "> 10", "unit": "µM"}, {"measurement": "EC50", "setting": "VEEV (TC-83)", "value": "> 10", "unit": "µM"}, {"measurement": "EC50", "setting": "SARS-CoV-2", "value": "0.96 ± 0.32", "unit": "µM"}, {"measurement": "CC50", "setting": "in vitro [3]", "value": "6.46 ± 1.75", "unit": "µM"}, {"measurement": "CC50 at 4 days", "setting": "in vitro [2]", "value": "5.71 ± 0.044", "unit": "µM"}]}
{"smiles": "CNC(=O)c1ccc(-c2cnc3[nH]cc(C#Cc4cccnc4)c3c2)cc1", "note": "[Compound 8a]", "values": [{"measurement": "EC50", "setting": "RSV-A", "value": "0.89 ± 0.4", "unit": "µM"}, {"measurement": "CC50", "setting": "in vitro [1]", "value": "> 10", "unit": "µM"}, {"measurement": "EC50", "setting": "VEEV (TC-83)", "value": "2.72 ± 0.93", "unit": "µM"}, {"measurement": "CC50 at 4 days", "setting": "in vitro [2]", "value": "6 ± 5.66", "unit": "µM"}]}
{"smiles": "O=C(NC1CC1)c1ccc(-c2cnc3[nH]cc(C#Cc4cccnc4)c3c2)cc1", "note": "[Compound 8d]", "values": [{"measurement": "EC50", "setting": "RSV-A", "value": "4.63 ± 3.71", "unit": "µM"}, {"measurement": "CC50", "setting": "in vitro [1]", "value": "> 10", "unit": "µM"}, {"measurement": "EC50", "setting": "VEEV (TC-83)", "value": "> 10", "unit": "µM"}, {"measurement": "CC50 at 4 days", "setting": "in vitro [2]", "value": 50, "unit": "µM"}]}
{"smiles": "CC(C)CNC(=O)c1cccc(-c2cnc3[nH]cc(C#Cc4cccnc4)c3c2)c1", "note": "[Compound 8g]", "values": [{"measurement": "EC50", "setting": "RSV-A", "value": "0.66 ± 0.22", "unit": "µM"}, {"measurement": "CC50", "setting": "in vitro [1]", "value": "> 10", "unit": "µM"}, {"measurement": "EC50", "setting": "VEEV (TC-83)", "value": "3.75 ± 1.08", "unit": "µM"}, {"measurement": "EC50", "setting": "SARS-CoV-2", "value": "0.76 ± 0.46", "unit": "µM"}, {"measurement": "CC50", "setting": "in vitro [3]", "value": "> 85", "unit": "µM"}, {"measurement": "CC50 at 4 days", "setting": "in vitro [2]", "value": "3.38 ± 1.01", "unit": "µM"}]}
{"smiles": "COCCNC(=O)c1cccc(-c2cnc3[nH]cc(C#Cc4cccnc4)c3c2)c1", "note": "[Compound 8h]", "values": [{"measurement": "EC50", "setting": "RSV-A", "value": "0.72 ± 0.46", "unit": "µM"}, {"measurement": "CC50", "setting": "in vitro [1]", "value": "> 10", "unit": "µM"}, {"measurement": "EC50", "setting": "VEEV (TC-83)", "value": "2.48 ± 1.27", "unit": "µM"}, {"measurement": "EC50", "setting": "SARS-CoV-2", "value": "2.13 ± 1.91", "unit": "µM"}, {"measurement": "CC50", "setting": "in vitro [3]", "value": "> 100", "unit": "µM"}, {"measurement": "CC50 at 4 days", "setting": "in vitro [2]", "value": "17.3 ± 7.88", "unit": "µM"}]}
{"smiles": "O=C(NCc1ccccc1)c1cccc(-c2cnc3[nH]cc(C#Cc4cccnc4)c3c2)c1", "note": "[Compound 8i]", "values": [{"measurement": "EC50", "setting": "RSV-A", "value": "2.71 ± 2.88", "unit": "µM"}, {"measurement": "CC50", "setting": "in vitro [1]", "value": "> 10", "unit": "µM"}, {"measurement": "EC50", "setting": "VEEV (TC-83)", "value": "1.29 ± 1.41", "unit": "µM"}, {"measurement": "CC50 at 4 days", "setting": "in vitro [2]", "value": "> 50", "unit": "µM"}]}
{"smiles": "CN(C)C(=O)c1cccc(-c2cnc3[nH]cc(C#Cc4cccnc4)c3c2)c1", "note": "[Compound 8j]", "values": [{"measurement": "EC50", "setting": "RSV-A", "value": "3.65 ± 2.28", "unit": "µM"}, {"measurement": "CC50", "setting": "in vitro [1]", "value": "> 10", "unit": "µM"}, {"measurement": "EC50", "setting": "VEEV (TC-83)", "value": "4.57 ± 4.87", "unit": "µM"}, {"measurement": "CC50 at 4 days", "setting": "in vitro [2]", "value": "> 50", "unit": "µM"}]}
{"smiles": "O=C(c1cccc(-c2cnc3[nH]cc(C#Cc4cccnc4)c3c2)c1)N1CCOCC1", "note": "[Compound 8m]", "values": [{"measurement": "EC50", "setting": "RSV-A", "value": "3.42 ± 4.4", "unit": "µM"}, {"measurement": "CC50", "setting": "in vitro [1]", "value": "> 10", "unit": "µM"}, {"measurement": "EC50", "setting": "VEEV (TC-83)", "value": "> 10", "unit": "µM"}, {"measurement": "CC50 at 4 days", "setting": "in vitro [2]", "value": "10.9 ± 0.69", "unit": "µM"}]}
{"smiles": "O=C(NC1CC1)c1cccc(-c2cnc3[nH]cc(C#Cc4ccc(F)nc4)c3c2)c1", "note": "[Compound 9a]", "values": [{"measurement": "loss in anti-RSV activity relative to compound 8f", "setting": "RSV-A; HEp-2 cells", "value": 10, "unit": "fold"}, {"measurement": "EC50", "setting": "RSV-A", "value": "1.76 ± 0.91", "unit": "µM"}, {"measurement": "CC50", "setting": "in vitro [1]", "value": "> 10", "unit": "µM"}, {"measurement": "EC50", "setting": "VEEV (TC-83)", "value": "6.54 ± 1.21", "unit": "µM"}, {"measurement": "CC50 at 4 days", "setting": "in vitro [2]", "value": "> 50", "unit": "µM"}]}
{"smiles": "COc1cncc(C#Cc2c[nH]c3ncc(-c4cccc(C(=O)NC5CC5)c4)cc23)c1", "note": "[Compound 9b]", "values": [{"measurement": "EC50", "setting": "RSV-A", "value": "0.24 ± 0.057", "unit": "µM"}, {"measurement": "CC50", "setting": "in vitro [1]", "value": "8.99 ± 1.6", "unit": "µM"}, {"measurement": "EC50", "setting": "VEEV (TC-83)", "value": "1.39 ± 0.2", "unit": "µM"}, {"measurement": "CC50 at 4 days", "setting": "in vitro [2]", "value": "22.2 ± 3.68", "unit": "µM"}]}
{"smiles": "O=C(NC1CC1)c1cccc(-c2cnc3[nH]cc(C#Cc4ccccc4)c3c2)c1", "note": "[Compound 9d]", "values": [{"measurement": "EC50", "setting": "RSV-A", "value": "0.82 ± 0.22", "unit": "µM"}, {"measurement": "CC50", "setting": "in vitro [1]", "value": "> 10", "unit": "µM"}, {"measurement": "EC50", "setting": "VEEV (TC-83)", "value": "> 10", "unit": "µM"}, {"measurement": "CC50 at 4 days", "setting": "in vitro [2]", "value": "> 50", "unit": "µM"}]}
{"smiles": "O=C(NC1CC1)c1cccc(-c2cnc3[nH]cc(C#Cc4ccsc4)c3c2)c1", "note": "[Compound 9e]", "values": [{"measurement": "EC50", "setting": "RSV-A", "value": "0.51 ± 0.16", "unit": "µM"}, {"measurement": "CC50", "setting": "in vitro [1]", "value": "> 10", "unit": "µM"}, {"measurement": "EC50", "setting": "VEEV (TC-83)", "value": "> 10", "unit": "µM"}, {"measurement": "CC50 at 4 days", "setting": "in vitro [2]", "value": "> 50", "unit": "µM"}]}
{"smiles": "O=C(NC1CC1)c1cccc(-c2cnc3[nH]cc(C#Cc4cccc(Cl)c4)c3c2)c1", "note": "[Compound 9f]", "values": [{"measurement": "anti-RSV activity (in words)", "setting": "RSV-A; HEp-2 cells", "value": "inactive"}, {"measurement": "EC50", "setting": "RSV-A", "value": "> 50", "unit": "µM"}, {"measurement": "CC50", "setting": "in vitro [1]", "value": "> 10", "unit": "µM"}, {"measurement": "EC50", "setting": "VEEV (TC-83)", "value": "6.7 ± 2.79", "unit": "µM"}, {"measurement": "CC50 at 4 days", "setting": "in vitro [2]", "value": "> 50", "unit": "µM"}]}
{"smiles": "COc1cccc(C#Cc2c[nH]c3ncc(-c4cccc(C(=O)NC5CC5)c4)cc23)c1", "note": "[Compound 9g]", "values": [{"measurement": "EC50", "setting": "RSV-A", "value": "0.1 ± 0.19", "unit": "µM"}, {"measurement": "CC50", "setting": "in vitro [1]", "value": "> 10", "unit": "µM"}, {"measurement": "EC50", "setting": "VEEV (TC-83)", "value": "5.27 ± 1.01", "unit": "µM"}, {"measurement": "CC50 at 4 days", "setting": "in vitro [2]", "value": "> 20", "unit": "µM"}]}
{"smiles": "N#C[C@@]1(c2ccc3c(N)ncnn23)O[C@H](CO)[C@@H](O)[C@H]1O", "note": "[GS-441524, reference compound]", "values": [{"measurement": "EC50", "setting": "SARS-CoV-2", "value": "0.7 ± 0.07", "unit": "µM"}]}
